According to patent US5182284A, “Piperazine compounds, processes for preparation thereof and medical uses thereof” (Taiho Pharmaceutical Co., Ltd., priority 1990, dated 1993):

How the values were obtained:
[1] = target: T1, 5-Lipoxygenase (Cavia porcellus, UniProt A0A286X958); assay: 5-Lipoxygenase inhibitory effect; format: biochemical; settings: cytosol fraction of guinea pig polymorphonuclear leukocytes, 14C-arachidonic acid, 5-hydroxyeicosatetraenoic acid formation
T1 construct: the polymorphonuclear leukocytes were collected and the cytosol fraction was obtained as an enzyme source; endogenous in cells; host or cells: guinea pig peritoneal polymorphonuclear leukocytes (casein-elicited), cytosol fraction
T1 sequence (A0A286X958 1-674): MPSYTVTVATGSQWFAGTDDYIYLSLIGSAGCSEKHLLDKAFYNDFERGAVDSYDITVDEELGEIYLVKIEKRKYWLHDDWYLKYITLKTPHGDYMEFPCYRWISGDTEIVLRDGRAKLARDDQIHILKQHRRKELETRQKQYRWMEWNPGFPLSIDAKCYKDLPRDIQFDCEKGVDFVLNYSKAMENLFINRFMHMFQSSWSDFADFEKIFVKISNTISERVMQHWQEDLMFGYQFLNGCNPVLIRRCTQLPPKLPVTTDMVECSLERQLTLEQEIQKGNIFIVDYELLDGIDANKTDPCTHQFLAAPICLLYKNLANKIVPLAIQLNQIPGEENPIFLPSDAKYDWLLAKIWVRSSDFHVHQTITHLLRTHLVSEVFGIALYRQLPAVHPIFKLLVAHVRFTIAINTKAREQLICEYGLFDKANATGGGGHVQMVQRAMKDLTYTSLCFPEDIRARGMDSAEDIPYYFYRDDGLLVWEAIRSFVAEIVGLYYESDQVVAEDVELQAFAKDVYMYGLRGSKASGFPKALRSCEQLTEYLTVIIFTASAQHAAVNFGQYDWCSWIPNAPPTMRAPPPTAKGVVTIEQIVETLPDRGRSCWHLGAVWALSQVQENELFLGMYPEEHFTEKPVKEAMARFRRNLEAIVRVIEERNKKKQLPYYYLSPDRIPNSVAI
Description: 2) 5-Lipoxygenase inhibitory effect
The assay was carried out by the method described in Journal of Biological Chemistry 258, 5754-5758 (1983) Casein was injected into the abdominal cavity of a guinea pig, and the polymorphonuclear leukocytes were collected and the cytosol fraction was obtained as an enzyme source. ^14 C-Arachidonic acid was reacted with the enzyme and the test drugs at various concentrations over a predetermined period of time. The obtained 5-hydroxyeicosatetraenoic acid was separated by thin-layer chromatography and the radioactivity was determined. By the comparison with the radioactivity of the control, the IC50 values were calculated.

[2] = target: Cyclooxygenase; assay: Cyclooxygenase inhibitory effect; format: biochemical; settings: seminal vesicular gland microsomes, 14C-arachidonic acid, prostaglandin E2 formation
Description: (1) Cyclooxygenase inhibitory effect
The assay was carried out by the method described in Biochem. Pharmacol. 25, 2479-2484 (1976).
^14 C-Arachidonic acid was reacted with seminal vesicular gland microsomes and the test drugs at various concentrations over a predetermined period of time and the obtained prostaglandin E2 was separated by thin-layer chromatography. The radioactivity was determined by liquid scintillation counter. The IC50 values were calculated by the comparison with the radioactivity of the control.

[3] = test system: contraction of respiratory tract; assay: Effect on allergic asthma (airway resistance after ovalbumin challenge in passively sensitized guinea pigs); format: in vivo, guinea pig (Hartley); settings: mean ± standard error, oral, 100 mg in 5 ml, 5 ml/kg, 2 hours before challenge, ovalbumin i.v., diphenhydramine, propranolol and indomethacin pretreatment
Description: 3. Effect on allergic asthma
To a guinea pig (Hartley, 350 to 400 g, male) was administered 0.5 ml/kg of a guinea pig anti-ovalbumin IgE serum for passive sensitization. Two days later, the guinea pig was anesthetized with pentobarbital (70 mg/kg) and a cannula and a catheter were each inserted into the trachea and a carotid artery, respectively. Further, the spontaneous respiration of the guinea pig was stopped with use of 0.5 mg/kg of pancuronium bromide and artificial respiration was conducted (100% oxygen at 1 kgf/cm^2, respirator: EVM-50A (manufactured by AIKA Co., Ltd.), predetermined flow rate of oxygen: 0.45 l/min, number of respiration: 40 times/min, time for inspiration: 0.25 sec/respiration). The measurement for contraction of respiratory tract was carried out by modified Konzett and Rossler method. A 100 mg quantity of the compound of the present invention was suspended in 5 ml of a 5% Tween-80-phosphate buffered physiological saline solution (pH 6.8). Two hours before the challenge, the test drug was orally administered in a volume of 5 ml/kg. The same quantity of the solvent alone was orally administered to a control group. Further, 2.5 mg/kg of diphenhydramine, 0.05 mg/kg of propranolol and 5 mg/kg of indomethacin were intravenously administered 5 minutes before the challenge. A 22.5 to 35 μg/kg quantity of ovalbumin was intravenously administered and the contraction of respiratory tract was measured as airway resistance with use of a pressure transducer. The maximum airway resistance was taken as 100%, and the change in the airway resistance caused a predetermined period of time after the challenge was shown as the ratio relative to the maximum airway resistance.

| Compound | IC50 [1] | IC50 [2] | Airway resistance (ratio relative to the maximum airway resistance) ([3]; 3 minutes after challenge, control 41.9 ± 7.0) | Airway resistance (ratio relative to the maximum airway resistance) ([3]; 8 minutes after challenge, control 79.5 ± 5.4) | Airway resistance (ratio relative to the maximum airway resistance) ([3]; 16 minutes after challenge, control 75.3 ± 5.8) |
| --- | --- | --- | --- | --- | --- |
| CCCCCCCCCCN1CCN(CC(OC(=O)/C=C/c2ccc(O)c(O)c2)c2ccccc2)CC1 (stereo not drawn) [Compound 19] | 0.08 µM | 4.3 µM |  |  |  |
| O=C(Cc1ccc(O)c(O)c1)OC(CN1CCN(CCCCCCCCCCO)CC1)c1ccccc1 (stereo not drawn) [Compound 8] | 0.32 µM | 9.9 µM |  |  |  |
| O=C(/C=C/c1ccc(O)c(O)c1)OC(CN1CCN(CCCCCCCCCCO)CC1)c1ccc(Cl)cc1 (stereo not drawn) [Compound 15] | 0.09 µM | 3.4 µM |  |  |  |
| CCCCCCCCCCN1CCN(C(=O)CNC(=O)/C=C/c2ccc(OC(=O)OCC)c(OC(=O)OCC)c2)CC1 [Compound 40] |  |  | 22.6 ± 3.7% | 45.6 ± 11.0% | 40.9 ± 11.3% |

The next lines start with results.

| IC50 [1] | IC50 [2] | Compound | Airway resistance (ratio relative to the maximum airway resistance) ([3]; 3 minutes after challenge, control 41.9 ± 7.0) | Airway resistance (ratio relative to the maximum airway resistance) ([3]; 8 minutes after challenge, control 79.5 ± 5.4) | Airway resistance (ratio relative to the maximum airway resistance) ([3]; 16 minutes after challenge, control 75.3 ± 5.8) |
| --- | --- | --- | --- | --- | --- |
| 0.12 µM | 2.9 µM | CCCCCCCCN1CCN(C(=O)/C=C/c2ccc(O)c(O)c2)CC1 [Compound 36] |  |  |  |
| 0.04 µM | 4.2 µM | CCCCCCCCCCN1CCN(C(=O)CNC(=O)/C=C/c2ccc(O)c(O)c2)CC1 [Compound 23] |  |  |  |
| 0.04 µM | 8.4 µM | CCCCCCCCCCN1CCN(C(=O)/C=C/c2ccc(O)c(O)c2)CC1 [Compound 35] |  |  |  |
